Experimental data reported in ChEMBL document CHEMBL4507305, “Data for DCP probe TP-024” (2021).

What was measured:
[1] = molecular target: Mitogen-activated protein kinase 13 (Homo sapiens) (UniProt O15264); settings: Compound concentration 1000.0 nM
[2] = molecular target: Sodium-dependent serotonin transporter (Homo sapiens) (UniProt P31645); settings: Compound concentration 10.0 uM
[3] = molecular target: 5-hydroxytryptamine receptor 6 (Homo sapiens) (UniProt P50406); settings: Compound concentration 10.0 uM
[4] = molecular target: Serine/threonine-protein kinase PLK2 (Homo sapiens) (UniProt Q9NYY3); settings: Compound concentration 1000.0 nM
[5] = molecular target: G protein-coupled receptor kinase 3 (Homo sapiens) (UniProt P35626); settings: Compound concentration 1000.0 nM
[6] = molecular target: Mitogen-activated protein kinase 7 (Homo sapiens) (UniProt Q13164); settings: Compound concentration 1000.0 nM
[7] = molecular target: Vascular endothelial growth factor receptor 1 (Homo sapiens) (UniProt P17948); settings: Compound concentration 1000.0 nM
[8] = molecular target: Phosphatidylinositol 3-kinase catalytic subunit type 3 (Homo sapiens) (UniProt Q8NEB9); settings: Compound concentration 1000.0 nM
[9] = test system: Tyrosine-protein kinase ABL1 (Homo sapiens), P00519 [H396P]; settings: Compound concentration 1000.0 nM
[10] = molecular target: Eukaryotic translation initiation factor 2-alpha kinase 1 (Homo sapiens) (UniProt Q9BQI3); settings: Compound concentration 1000.0 nM
[11] = molecular target: Ephrin type-B receptor 6 (Homo sapiens) (UniProt O15197); settings: Compound concentration 1000.0 nM
[12] = molecular target: Histamine H4 receptor (Homo sapiens) (UniProt Q9H3N8); settings: Compound concentration 10.0 uM
[13] = molecular target: Muscarinic acetylcholine receptor M4 (Homo sapiens) (UniProt P08173); settings: Compound concentration 10.0 uM
Chain of Muscarinic acetylcholine receptor M4 (Homo sapiens) (P08173 whole entry): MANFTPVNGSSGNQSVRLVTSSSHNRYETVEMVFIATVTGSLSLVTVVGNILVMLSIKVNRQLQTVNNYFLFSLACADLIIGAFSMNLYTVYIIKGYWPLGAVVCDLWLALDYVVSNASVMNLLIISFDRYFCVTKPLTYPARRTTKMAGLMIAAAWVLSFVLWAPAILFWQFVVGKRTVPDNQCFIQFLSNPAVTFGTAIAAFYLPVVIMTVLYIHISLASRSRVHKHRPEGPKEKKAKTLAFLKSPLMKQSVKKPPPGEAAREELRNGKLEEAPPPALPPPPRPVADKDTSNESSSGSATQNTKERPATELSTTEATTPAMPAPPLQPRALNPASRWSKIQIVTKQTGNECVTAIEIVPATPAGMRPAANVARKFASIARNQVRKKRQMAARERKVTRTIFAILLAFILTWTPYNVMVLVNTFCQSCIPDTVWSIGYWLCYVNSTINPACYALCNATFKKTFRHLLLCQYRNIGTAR

[14] = molecular target: Serine/threonine-protein kinase MRCK alpha (Homo sapiens) (UniProt Q5VT25); settings: Compound concentration 1000.0 nM
[15] = molecular target: Serine/threonine-protein kinase RIO1 (Homo sapiens) (UniProt Q9BRS2); settings: Compound concentration 1000.0 nM
[16] = molecular target: Ribosomal protein S6 kinase alpha-6 (Homo sapiens) (UniProt Q9UK32); settings: Compound concentration 1000.0 nM
Chain of Ribosomal protein S6 kinase alpha-6 (Homo sapiens) (Q9UK32 whole entry): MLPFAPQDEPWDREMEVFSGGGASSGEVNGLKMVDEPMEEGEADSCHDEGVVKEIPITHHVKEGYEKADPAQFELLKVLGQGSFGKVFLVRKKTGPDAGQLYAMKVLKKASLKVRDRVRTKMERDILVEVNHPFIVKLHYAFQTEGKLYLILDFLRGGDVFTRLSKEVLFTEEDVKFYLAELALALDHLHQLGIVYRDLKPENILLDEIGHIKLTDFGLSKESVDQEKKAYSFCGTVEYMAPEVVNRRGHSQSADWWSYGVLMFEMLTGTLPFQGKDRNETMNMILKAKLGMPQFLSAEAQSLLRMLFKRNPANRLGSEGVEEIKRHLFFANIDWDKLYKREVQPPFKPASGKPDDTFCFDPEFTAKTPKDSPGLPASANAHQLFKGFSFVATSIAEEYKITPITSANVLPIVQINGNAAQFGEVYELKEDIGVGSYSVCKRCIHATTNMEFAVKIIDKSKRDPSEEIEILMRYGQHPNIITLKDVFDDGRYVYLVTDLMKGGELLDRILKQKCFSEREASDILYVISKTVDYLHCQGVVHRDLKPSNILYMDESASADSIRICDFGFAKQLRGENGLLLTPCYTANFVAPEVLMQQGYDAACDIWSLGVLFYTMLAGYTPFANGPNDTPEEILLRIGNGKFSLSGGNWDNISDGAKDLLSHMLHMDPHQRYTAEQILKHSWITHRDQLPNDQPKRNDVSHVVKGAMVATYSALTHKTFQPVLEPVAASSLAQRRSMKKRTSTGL

[17] = molecular target: Mitogen-activated protein kinase kinase kinase 10 (Homo sapiens) (UniProt Q02779); settings: Compound concentration 1000.0 nM
[18] = molecular target: Protein kinase C delta type (Homo sapiens) (UniProt Q05655); settings: Compound concentration 1000.0 nM
[19] = molecular target: SRSF protein kinase 3 (Homo sapiens) (UniProt Q9UPE1); settings: Compound concentration 1000.0 nM
[20] = test system: Mast/stem cell growth factor receptor Kit (Homo sapiens), P10721 [L576P]; settings: Compound concentration 1000.0 nM
[21] = molecular target: SRSF protein kinase 2 (Homo sapiens) (UniProt P78362); settings: Compound concentration 1000.0 nM
[22] = molecular target: Receptor-type tyrosine-protein kinase FLT3 (Homo sapiens) (UniProt P36888); settings: Compound concentration 1000.0 nM
[23] = molecular target: MAP kinase-activated protein kinase 5 (Homo sapiens) (UniProt Q8IW41); settings: Compound concentration 1000.0 nM
Chain of MAP kinase-activated protein kinase 5 (Homo sapiens) (Q8IW41 whole entry): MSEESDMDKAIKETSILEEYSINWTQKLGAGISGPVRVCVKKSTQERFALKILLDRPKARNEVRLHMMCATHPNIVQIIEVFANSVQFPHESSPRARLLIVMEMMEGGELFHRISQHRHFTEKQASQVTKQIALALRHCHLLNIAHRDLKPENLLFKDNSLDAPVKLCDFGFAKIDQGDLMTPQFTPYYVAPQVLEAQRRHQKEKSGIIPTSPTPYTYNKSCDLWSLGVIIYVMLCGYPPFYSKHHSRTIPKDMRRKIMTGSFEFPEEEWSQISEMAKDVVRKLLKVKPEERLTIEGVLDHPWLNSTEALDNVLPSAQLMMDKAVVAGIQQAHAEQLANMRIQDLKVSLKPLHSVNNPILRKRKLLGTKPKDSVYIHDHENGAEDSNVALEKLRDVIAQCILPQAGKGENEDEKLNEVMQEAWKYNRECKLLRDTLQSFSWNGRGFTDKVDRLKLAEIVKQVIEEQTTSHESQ

[24] = molecular target: Aurora kinase B (Homo sapiens) (UniProt Q96GD4); settings: Compound concentration 1000.0 nM
[25] = molecular target: Ephrin type-A receptor 4 (Homo sapiens) (UniProt P54764); settings: Compound concentration 1000.0 nM
[26] = test system: Epidermal growth factor receptor (Homo sapiens), P00533 [UNDEFINED MUTATION]; settings: Compound concentration 1000.0 nM
[27] = molecular target: Ephrin type-B receptor 2 (Homo sapiens) (UniProt P29323); settings: Compound concentration 1000.0 nM
[28] = molecular target: Hepatocyte growth factor receptor (Homo sapiens) (UniProt P08581); settings: Compound concentration 1000.0 nM
[29] = molecular target: Macrophage-stimulating protein receptor (Homo sapiens) (UniProt Q04912); settings: Compound concentration 1000.0 nM
[30] = molecular target: D(3) dopamine receptor (Homo sapiens) (UniProt P35462); settings: Compound concentration 10.0 uM
[31] = molecular target: Tyrosine-protein kinase ITK/TSK (Homo sapiens) (UniProt Q08881); settings: Compound concentration 1000.0 nM
[32] = molecular target: Mitogen-activated protein kinase kinase kinase kinase 3 (Homo sapiens) (UniProt Q8IVH8); settings: Compound concentration 1000.0 nM
[33] = molecular target: Bone morphogenetic protein receptor type-1A (Homo sapiens) (UniProt P36894); settings: Compound concentration 1000.0 nM
Chain of Bone morphogenetic protein receptor type-1A (Homo sapiens) (P36894 whole entry): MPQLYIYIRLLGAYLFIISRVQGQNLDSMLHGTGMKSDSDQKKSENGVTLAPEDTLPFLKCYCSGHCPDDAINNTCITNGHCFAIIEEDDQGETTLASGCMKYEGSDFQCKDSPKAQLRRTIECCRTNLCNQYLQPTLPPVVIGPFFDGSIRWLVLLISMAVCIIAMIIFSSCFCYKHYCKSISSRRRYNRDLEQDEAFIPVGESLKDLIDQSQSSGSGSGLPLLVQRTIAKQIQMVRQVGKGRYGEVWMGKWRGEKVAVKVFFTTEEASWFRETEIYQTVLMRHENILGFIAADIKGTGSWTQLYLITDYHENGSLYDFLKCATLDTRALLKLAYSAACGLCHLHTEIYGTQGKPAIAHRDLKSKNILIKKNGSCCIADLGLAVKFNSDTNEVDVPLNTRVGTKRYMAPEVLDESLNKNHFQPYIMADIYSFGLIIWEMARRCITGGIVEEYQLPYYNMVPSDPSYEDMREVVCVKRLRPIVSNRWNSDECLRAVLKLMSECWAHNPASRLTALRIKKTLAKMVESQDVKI

[34] = molecular target: Serine/threonine-protein kinase LATS2 (Homo sapiens) (UniProt Q9NRM7); settings: Compound concentration 1000.0 nM
[35] = molecular target: Fibroblast growth factor receptor 1 (Homo sapiens) (UniProt P11362); settings: Compound concentration 1000.0 nM
[36] = molecular target: Ephrin type-B receptor 1 (Homo sapiens) (UniProt P54762); settings: Compound concentration 1000.0 nM
[37] = molecular target: Serine/threonine-protein kinase MARK1 (Homo sapiens) (UniProt Q9P0L2); settings: Compound concentration 1000.0 nM
Chain of Serine/threonine-protein kinase MARK1 (Homo sapiens) (Q9P0L2 whole entry, looked up): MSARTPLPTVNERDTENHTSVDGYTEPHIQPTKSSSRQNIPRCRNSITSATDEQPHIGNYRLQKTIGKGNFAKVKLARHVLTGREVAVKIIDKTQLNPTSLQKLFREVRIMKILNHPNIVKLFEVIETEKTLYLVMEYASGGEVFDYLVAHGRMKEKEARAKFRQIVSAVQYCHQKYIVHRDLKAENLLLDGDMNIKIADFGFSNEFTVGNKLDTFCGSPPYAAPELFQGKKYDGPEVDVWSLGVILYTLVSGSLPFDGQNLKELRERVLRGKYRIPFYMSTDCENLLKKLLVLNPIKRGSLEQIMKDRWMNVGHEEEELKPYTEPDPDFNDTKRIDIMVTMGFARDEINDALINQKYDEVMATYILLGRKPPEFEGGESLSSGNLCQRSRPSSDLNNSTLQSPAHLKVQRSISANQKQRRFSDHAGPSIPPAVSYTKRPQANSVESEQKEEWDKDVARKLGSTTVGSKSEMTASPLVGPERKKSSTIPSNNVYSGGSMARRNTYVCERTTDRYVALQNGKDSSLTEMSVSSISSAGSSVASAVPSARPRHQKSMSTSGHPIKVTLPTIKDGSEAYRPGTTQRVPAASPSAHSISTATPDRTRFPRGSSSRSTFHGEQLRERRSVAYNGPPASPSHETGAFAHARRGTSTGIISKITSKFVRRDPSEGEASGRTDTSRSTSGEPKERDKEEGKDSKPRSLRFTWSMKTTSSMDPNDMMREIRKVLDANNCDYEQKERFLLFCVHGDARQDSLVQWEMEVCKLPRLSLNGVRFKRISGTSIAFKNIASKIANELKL

[38] = molecular target: Mitogen-activated protein kinase 12 (Homo sapiens) (UniProt P53778); settings: Compound concentration 1000.0 nM
Chain of Mitogen-activated protein kinase 12 (Homo sapiens) (P53778 whole entry): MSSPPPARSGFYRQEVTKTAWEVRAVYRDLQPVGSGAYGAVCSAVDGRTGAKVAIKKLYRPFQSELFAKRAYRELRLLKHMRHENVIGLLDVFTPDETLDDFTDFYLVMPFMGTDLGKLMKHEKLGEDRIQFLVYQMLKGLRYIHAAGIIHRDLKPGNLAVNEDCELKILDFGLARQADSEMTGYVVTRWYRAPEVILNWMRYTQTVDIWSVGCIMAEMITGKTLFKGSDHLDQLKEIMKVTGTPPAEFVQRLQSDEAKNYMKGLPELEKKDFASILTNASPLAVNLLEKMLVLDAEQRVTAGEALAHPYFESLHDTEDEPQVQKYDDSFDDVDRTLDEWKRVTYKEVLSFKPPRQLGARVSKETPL

[39] = molecular target: Serine/threonine-protein kinase Nek11 (Homo sapiens) (UniProt Q8NG66); settings: Compound concentration 1000.0 nM
[40] = molecular target: Microtubule-associated serine/threonine-protein kinase 1 (Homo sapiens) (UniProt Q9Y2H9); settings: Compound concentration 1000.0 nM
[41] = molecular target: Ephrin type-A receptor 7 (Homo sapiens) (UniProt Q15375); settings: Compound concentration 1000.0 nM
[42] = molecular target: Muscle, skeletal receptor tyrosine-protein kinase (Homo sapiens) (UniProt O15146); settings: Compound concentration 1000.0 nM
[43] = molecular target: Uncharacterized serine/threonine-protein kinase SBK3 (Homo sapiens) (UniProt P0C264); settings: Compound concentration 1000.0 nM
Chain of Uncharacterized serine/threonine-protein kinase SBK3 (Homo sapiens) (P0C264 whole entry): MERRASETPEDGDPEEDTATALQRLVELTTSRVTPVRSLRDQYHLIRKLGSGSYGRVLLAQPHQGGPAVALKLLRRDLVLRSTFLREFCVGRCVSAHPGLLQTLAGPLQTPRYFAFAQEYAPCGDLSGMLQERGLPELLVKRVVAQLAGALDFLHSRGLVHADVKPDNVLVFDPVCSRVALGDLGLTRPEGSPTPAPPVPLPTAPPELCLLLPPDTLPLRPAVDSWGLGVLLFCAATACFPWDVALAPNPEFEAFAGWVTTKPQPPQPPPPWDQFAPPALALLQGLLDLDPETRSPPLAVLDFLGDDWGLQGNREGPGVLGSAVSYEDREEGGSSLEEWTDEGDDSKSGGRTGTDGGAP

[44] = test system: Epidermal growth factor receptor (Homo sapiens), P00533 [T790M]; settings: Compound concentration 1000.0 nM
[45] = molecular target: STE20-like serine/threonine-protein kinase (Homo sapiens) (UniProt Q9H2G2); settings: Compound concentration 1000.0 nM
Chain of STE20-like serine/threonine-protein kinase (Homo sapiens) (Q9H2G2 whole entry, looked up): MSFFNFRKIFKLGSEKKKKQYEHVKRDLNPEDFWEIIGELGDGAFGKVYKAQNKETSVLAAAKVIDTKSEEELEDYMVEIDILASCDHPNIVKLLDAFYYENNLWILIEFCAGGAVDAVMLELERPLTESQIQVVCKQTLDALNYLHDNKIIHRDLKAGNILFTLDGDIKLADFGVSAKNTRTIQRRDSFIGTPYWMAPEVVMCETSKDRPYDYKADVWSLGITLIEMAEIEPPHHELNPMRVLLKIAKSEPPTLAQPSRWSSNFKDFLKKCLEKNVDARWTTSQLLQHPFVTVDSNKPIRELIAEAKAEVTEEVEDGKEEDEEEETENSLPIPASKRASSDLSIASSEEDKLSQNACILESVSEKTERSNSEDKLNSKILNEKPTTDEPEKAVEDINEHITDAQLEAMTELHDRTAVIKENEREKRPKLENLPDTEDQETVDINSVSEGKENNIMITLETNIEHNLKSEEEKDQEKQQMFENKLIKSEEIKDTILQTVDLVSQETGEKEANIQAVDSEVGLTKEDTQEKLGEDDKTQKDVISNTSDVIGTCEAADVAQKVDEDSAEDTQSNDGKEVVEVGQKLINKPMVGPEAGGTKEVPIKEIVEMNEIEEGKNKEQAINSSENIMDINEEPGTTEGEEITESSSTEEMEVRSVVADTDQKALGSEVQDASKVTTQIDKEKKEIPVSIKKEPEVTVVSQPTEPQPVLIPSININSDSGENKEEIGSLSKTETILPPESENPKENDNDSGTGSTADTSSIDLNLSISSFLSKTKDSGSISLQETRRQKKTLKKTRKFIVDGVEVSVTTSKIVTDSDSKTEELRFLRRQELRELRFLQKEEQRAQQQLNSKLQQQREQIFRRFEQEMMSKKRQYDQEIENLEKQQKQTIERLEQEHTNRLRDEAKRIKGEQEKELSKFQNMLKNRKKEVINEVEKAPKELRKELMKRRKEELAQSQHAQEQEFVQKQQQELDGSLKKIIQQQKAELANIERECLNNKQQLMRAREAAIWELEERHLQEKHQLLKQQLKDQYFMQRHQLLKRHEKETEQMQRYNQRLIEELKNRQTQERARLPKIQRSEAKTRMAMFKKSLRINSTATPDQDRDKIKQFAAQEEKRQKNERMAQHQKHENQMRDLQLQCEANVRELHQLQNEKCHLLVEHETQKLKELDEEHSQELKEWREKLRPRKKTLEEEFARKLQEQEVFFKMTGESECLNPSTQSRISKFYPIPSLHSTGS

[46] = molecular target: Serine/threonine-protein kinase 36 (Homo sapiens) (UniProt Q9NRP7); settings: Compound concentration 1000.0 nM

Molecule `Cc1nc(Cc2cccc(C(F)(F)F)c2)sc1-c1ccc(C(N)=O)nc1` [TP-024n] has a residual activity [1] of 99%, an inhibition [2] of -7.18% and an inhibition [3] of 2.42%. For the same molecule, the residual activity [4] was 82%, the residual activity [5] was 100% and the residual activity [6] was 88%. It also gave a residual activity [7] of 100%, a residual activity [8] of 100% and a residual activity [9] of 87%. It also gave a residual activity [10] of 100%, a residual activity [11] of 100% and an inhibition [12] of 7.74%. For the same molecule, the inhibition [13] was 2.94%, the residual activity [14] was 81% and the residual activity [15] was 94%. The residual activity [16] was 91%, the residual activity [17] was 71% and the residual activity [18] was 79%. It also gave a residual activity [19] of 100%, a residual activity [20] of 89% and a residual activity [21] of 100%. It also gave a residual activity [22] of 93%, a residual activity [23] of 100% and a residual activity [24] of 100%. It also gave a residual activity [25] of 100%, a residual activity [26] of 0% and a residual activity [27] of 86%. The residual activity [28] was 63%, the residual activity [29] was 100% and the inhibition [30] was 6.21%. For the same molecule, the residual activity [31] was 100%, the residual activity [32] was 76% and the residual activity [33] was 76%. The residual activity [34] was 90%, the residual activity [35] was 83% and the residual activity [36] was 100%. For the same molecule, the residual activity [37] was 90%, the residual activity [38] was 100% and the residual activity [39] was 100%. The residual activity [40] was 100%, the residual activity [41] was 100% and the residual activity [42] was 89%. The residual activity [43] was 100%, the residual activity [44] was 98% and the residual activity [45] was 100%. For the same molecule, the residual activity [46] was 100%.

For `Cc1cc(-n2nc(Cc3cc(F)cc(C(F)(F)F)c3)nc2C)ccc1C(N)=O` [TP-024], the residual activity [1] was 100%, the inhibition [2] was -1.29% and the inhibition [3] was 6.25%. The residual activity [4] was 100%, the residual activity [5] was 100% and the residual activity [6] was 100%. For the same molecule, the residual activity [7] was 100%, the residual activity [8] was 100% and the residual activity [9] was 97%. The residual activity [10] was 100%, the residual activity [11] was 100% and the inhibition [12] was 1.73%. The inhibition [13] was 6.9%, the residual activity [14] was 100% and the residual activity [15] was 85%. The residual activity [16] was 89%, the residual activity [17] was 95% and the residual activity [18] was 88%. The residual activity [19] was 100%, the residual activity [20] was 52% and the residual activity [21] was 100%. The residual activity [22] was 100%, the residual activity [23] was 100% and the residual activity [24] was 87%. For the same molecule, the residual activity [25] was 96%, the residual activity [26] was 100% and the residual activity [27] was 100%. For the same molecule, the residual activity [28] was 81%, the residual activity [29] was 100% and the inhibition [30] was 3.4%. For the same molecule, the residual activity [31] was 93%, the residual activity [32] was 69% and the residual activity [33] was 85%. The residual activity [34] was 100%, the residual activity [35] was 100% and the residual activity [36] was 97%. It also gave a residual activity [37] of 100%, a residual activity [38] of 100% and a residual activity [39] of 100%. For the same molecule, the residual activity [40] was 100%, the residual activity [41] was 98% and the residual activity [42] was 100%. For the same molecule, the residual activity [43] was 91%, the residual activity [44] was 94% and the residual activity [45] was 92%. It also gave a residual activity [46] of 100%.
